From patent US5639715A, “Aqueous based drilling fluid additive and composition” (M-I Drilling Fluids LLC, priority 1994, dated 1997)

Tests used:
Assay type in all cases: physicochemical
[1] = lubricity coefficient, Baroid lubricity meter (Table 4); conditions: 1% solution in deionized water
Protocol: A 1% solution of surfactant as in deionized water was tested on a Baroid lubricity meter (Model No. 21200-EP/Lubricity Tester). The lubricity coefficient of the samples were calculated and recorded in Table 4. Deionized water was used as base.

[2] = coefficient of friction on sandstone, Lubricity Evaluation Monitor (LEM) (Table 5); conditions: 1/2% in 22.5 ppb bentonite slurry
Protocol: The following experiment shower the lubricity properties of surfactants of this invention in 22.5 ppb bentonite slurry in water. The coefficient of friction on sandstone was determined using a Lubricity Evaluation Monitor (LEM) designed by M-I Drilling Fluids Company.

[3] = surface tension measurement at various concentrations and temperatures
Protocol: The surface tension measurement were carried out on Monawet SNO-35 and coco diethanolamide (CDA) at various concentrations and various temperatures. The following results establish that the higher surface tension values of the products of this invention when compared to the prior art, coco diethanolamide (CDA), would have lower foaming in drilling fluid applications.

CCCCCCCCCCCCCCCCCCN(C(=O)CC(C(=O)O)S(=O)(=O)O)C(CC(=O)O)C(=O)O (stereo not shown) [Monawet SNO-35, tetrasodium N-(1,2-dicarboxyethyl) N-alkyl (C18) sulfosuccinamate]
Lubricity coefficient [1]: .095 | % Reduction (lubricity coefficient) ([1]; versus DI water): 72% | % Reduction (coefficient of friction) [2]: 73.9% | Coefficient of Friction [2]: 0.168 | Surface Tension ([3]; 0.1% in DI water, 24 °C): 51 dynes per centimeter | Surface Tension ([3]; 0.1% in DI water, 38 °C): 47 dynes per centimeter | Surface Tension ([3]; 0.1% in DI water, 43 °C): 45 dynes per centimeter | Surface Tension ([3]; 0.1% in DI water, 50 °C): 44 dynes per centimeter | Surface Tension ([3]; 1.0% in DI water, 24 °C): 49 dynes per centimeter | Surface Tension ([3]; 1.0% in DI water, 36 °C): 42 dynes per centimeter | Surface Tension ([3]; 1.0% in DI water, 45 °C): 38 dynes per centimeter | Surface Tension ([3]; 1.0% in DI water, 50 °C): 37 dynes per centimeter | Surface Tension ([3]; 2.0% in DI water, 24 °C): 46 dynes per centimeter | Surface Tension ([3]; 2.0% in DI water, 38 °C): 41 dynes per centimeter | Surface Tension ([3]; 2.0% in DI water, 44 °C): 39 dynes per centimeter | Surface Tension ([3]; 2.0% in DI water, 49 °C): 37 dynes per centimeter
